Data published in US6774116B2, “Prodrugs via acylation with cinnamate” (priority 2001, dated 2004).

Tests used:
Type in all cases: in vivo, nude mice
[1] = test system: Human colon carcinoma cell line LS-180; experiment: Treatment of human colon carcinoma LS-180 xenograft with A—Z—CINN 551
Procedure: Human colon carcinoma cell line LS-180 is grown in cell culture as described (Kinuya et.al. 2001. J. Nucl. Med. 42:596-600). 1×10^7 cells/mouse are implanted s.c. into nude mice. When the tumors reached 150-200 mm^3 in size, A—Z—CINN 551 is used to treat the tumor as follows; 0.1-1.0 mg of A—Z—CINN 551 (1 mg mAb protein with ˜25 ug paclitaxel covalently attached) is injected i.v. via tail vein into mice with the tumor. After 6 hours, mice that received 0.1, 0.5 or 1.0 mg of A—Z—CINN […] are anesthetized with a Ketamine/Rompun mixture. A 16 G needle is used to create a hole in the skin and a 1 mm fiber optic probe is inserted up to the tumor. The tumor is exposed to white light for 5 minutes with a power of about 0.5 mW/cm^2. […] All mice are kept under “red lights” to prevent unnecessary light exposure and activation of A—Z—CINN 551 for 72 hours post injection, then returned to normal light/dark cycle.

[2] = test system: Human lung carcinoma cell line H2987; experiment: Treatment of human lung carcinoma H2987 xenograft with A—Z—CINN 441
Procedure: MAb BR110 is a murine mAb to a 66-kDa glycoprotein that is found on the cell surface of human lung, colon and breast tumor cells. Human lung carcinoma cell line H2987 is grown in cell culture as described (U.S. Pat. No. 5,840,854). 1×10^7 cells/mouse are implanted s.c. into a nude mice. When the tumors reached 150-200 mm^3 in size, A—Z—CINN 441 is used to treat the tumor as follows: 0.1-1.0 mg of A—Z—CINN 441 (1 mg mAb protein with ˜25 ug paclitaxel covalently attached) is injected i.v. via tail vein into mice with the tumor. After 6 hours, mice that receive 0.1, 0.5 or 1.0 mg of A—Z—CINN 441 are anesthetized with a Ketamine/Rompun mixture. A 16G needle is used to create a hole in the skin and a 1 mm fiber optic probe is inserted up to the tumor. The tumor is exposed to white light for 5 minutes with a power of about 0.5 mW/cm^2. […] All mice are kept under “red lights” to prevent light activation of the drug, for 72 hours post injection, then returned to normal light/dark cycle. […] Groups that receive antibody and free drug (unlinked) show tumor growth, and by 28 days the mice either die or have tumors>800 mm^3.

[3] = test system: Human breast cancer xenographs; experiment: Treatment of human breast carcinoma xenographs with A—Z—CINN 361
Procedure: Human breast cancer xenographs are prepared as described (Burak et.al. 1998. Nucl. Med. Biol. 25:633-637) Xenographs are implanted s.c. into a nude mice. When the tumor reached 150-200 mm^3 in size, A—Z—CINN 361 is used to treat the tumor as follows; 0.1-1.0 mg of A—Z—CINN 361 (1 mg mAb protein with ˜25 ug paclitaxel covalently attached) is injected i.v. via tail vein into mice with the tumor. After 6 hours, mice that receive 0.1, 0.5 or 1.0 mg of A—Z—CINN 361 are anesthetized with a Ketamine/Rompun mixture. A 16G needle is used to create a hole in the skin and a 1 mm fiber optic probe is inserted up to the tumor. The tumor is exposed to white light for 5 minutes with a power of about 0.5 mW/cm^2. […] All mice are kept under “red lights” to prevent unnecessary light exposure and activation of A—Z—CINN 361 for 72 hours post injection, then returned to normal light/dark cycle.

[4] = in 7 days, light treatment 6 hours after i.v. injection, 0.1, 0.5 or 1.0 mg

For “A7-mAb-S-Mal-PEG3400-N—CINN-paclitaxel [A—Z—CINN 551]”, the tumor shrinkage [1, 4] was > 50%, the “tumor size by 28 days” value ([1]; light treatment) was “less than 50 mm^3” and the “tumor size at 28 days” value ([1]; no light stimulation) was “smaller than 100 mm^3”.
For “BR110-mAb-S-Mal-PEG3400-N—CINN-paclitaxel [A—Z—CINN 441]”, the tumor shrinkage [2, 4] was > 50%, the “tumors by 28 days” value ([2]; light treatment) was “not detectable” and the “tumor size at 28 days” value ([2]; no light stimulation) was “smaller than 50 mm”.
“NR-LU-10 mAb-S-Mal-PEG3400-N—CINN-paclitaxel [A—Z—CINN 361]” was tested, and the tumor shrinkage [3, 4] was > 50%, the “tumor size by 28 days” value ([3]; light treatment) was “less than 50 mm^3” and the “tumor size at 28 days” value ([3]; no light stimulation) was “smaller than 100 mm^3”.
